Source: patent publication US20260209260A1, “VECTORIZED NHC IRIDIUM(III) COMPLEXES AND USE THEREOF IN PHOTODYNAMIC THERAPY AND/OR DIAGNOSTIC” (CENTRE NATIONAL DE LA RECHERCHE SCIENTIFIQUE, priority 2022, published 2026)
Several values for one entry are separate records, joined by “and”; a condition that tells them apart may be missing. Equal values may be shown once. Read-outs that look alike come from different tables or passages of the source.

Key:
Type in all cases: cell-based, Human
[1] = test system: A549 lung cancer cells; assay: Cell viability assay (MTT), dark and blue light; settings: for SI (vs NIH-3T3) A549 Blue: blue light 458 nm; for Photosensitizing index (PI) A549: dark vs blue light 458 nm
Experimental: (§1) Cells were grown in humidified incubators at 37° C. in 5% CO2. Murine MC3T3 osteoblast and NIH-3T3 fibroblast cells-used as non-tumor cell models-were cultured in a-MEM medium and DMEM medium supplemented with 10% fetal bovine serum (FBS) and 1% Penicillin/Streptomycin (P/S) antibiotics, respectively. Human T24 bladder, MGHU3 bladder, Scaber bladder, A549 lung, MCF7 breast, MiaPaCa2 pancreas cancer cells were cultured in DMEM medium supplemented with 10% FBS and 1% P/S antibiotics. […] Human Hela cervix and HepG2 liver cancer cells were cultured EMEM medium supplemented with 10% FBS and 1% P/S antibiotics.
(§2) MTT reagent (3-(4,5-dimethylthiazol-2-yl)-2,5-diphenyltetrazolium bromide) was used to determine cell death as originally described by Mosmann. Briefly, cells were seeded from 5,000 to 10,000 cells/well in 24-well plates (1 mL) depending on the cell type and allowed to attach overnight. The complexes were prepared in DMSO. The concentration of the complexes was calculated based on the elemental composition of the complexes determined by the elemental analyses. All cell viability experiments were carried out with a fixed concentration of 0.1% (v/v) DMSO. After 72 h of treatment, cells were incubated at 37° C. and 5% CO2 with 25 μL of MTT solution (5 mg/ml; Sigma-Aldrich) in 24-well plates for 3 to 4 h. After solubilization with 500 μL of DMSO, formazan was quantified spectrophotometrically with a microplate reader at 570 nm absorbance (ClarioSTAR, BMG LabTech). […] All the results were calculated from data obtained in at least three independent experiments performed in triplicate.
(§3) Two sets of experiments were conducted in parallel for each complex to be studied:
(§4) 1. The cells were incubated with the different complexes (in the dark) for 72 h.
(§5) 2. The cells were incubated for 8 h with the different complexes (in the dark), then irradiated for 10 min, followed by an incubation in the dark up to 72 h.

[2] = test system: T24 bladder cancer cells; assay: Cell viability assay (MTT), dark and blue light; settings: for Photosensitizing index (PI) T24: dark vs blue light 458 nm
Experimental: as §1, §2, §3, §4, §5

[3] = test system: Hela cervix cancer cells; assay: Cell viability assay (MTT), dark and blue light; settings: for SI (vs MC3T3) HeLa Blue: blue light 458 nm; for Photosensitizing index (PI) HeLa: dark vs blue light 458 nm
How it was run: (§6)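 Two parallel arms: continuous 72 h dark exposure, or 8 h preincubation followed by 10 min blue light at 458 nm (9.6 W LEDs) and further dark incubation to 72 h. Final DMSO 0.1% (v/v); MTT formazan read at 570 nm, triplicate runs repeated at least three times.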

[4] = test system: MCF7 breast cancer cells; assay: Cell viability assay (MTT), dark and blue light; settings: for Photosensitizing index (PI) MCF7: dark vs blue light 458 nm
How it was run: as §6

[5] = test system: MGHU3 bladder cancer cells; assay: Cell viability assay (MTT), dark and blue light; settings: for Photosensitizing index (PI) MGHU3: dark vs blue light 458 nm
How it was run: as §6

[6] = test system: Scaber bladder cancer cells; assay: Cell viability assay (MTT), dark and blue light; settings: for Photosensitizing index (PI) Scaber: dark vs blue light 458 nm; for SI (vs NIH-3T3) Scaber Blue: blue light 458 nm
How it was run: as §6

[7] = test system: cancer cells (all tumor cell lines tested); assay: Cell viability assay (MTT), summary over the cancer cell lines tested; settings: for PI values, mean over cancer cells / PI values, median over cancer cells: dark vs blue light 458 nm
Experimental: as §1, §2, §3, §4, §5

[8] = 8 h in the dark, blue light 458 nm 10 min, then dark up to 72 h, read-out: GI50 A549 Blue
[9] = in the dark, 72 h, read-out: GI50 A549 Dark
[10] = 8 h in the dark, blue light 458 nm 10 min, then dark up to 72 h, read-out: GI50 T24 Blue
[11] = in the dark, 72 h, read-out: GI50 T24 Dark
[12] = 8 h in the dark, blue light 458 nm 10 min, then dark up to 72 h, read-out: GI50 HeLa Blue
[13] = in the dark, 72 h, read-out: GI50 HeLa Dark
[14] = 8 h in the dark, blue light 458 nm 10 min, then dark up to 72 h, read-out: GI50 MCF7 Blue
[15] = in the dark, 72 h, read-out: GI50 MCF7 Dark
[16] = 8 h in the dark, blue light 458 nm 10 min, then dark up to 72 h, read-out: GI50 MGHU3 Blue
[17] = in the dark, 72 h, read-out: GI50 MGHU3 Dark
[18] = 8 h in the dark, blue light 458 nm 10 min, then dark up to 72 h, read-out: GI50 Scaber Blue
[19] = in the dark, 72 h, read-out: GI50 Scaber Dark

Row | Structure (SMILES) | GI50 [1, 8] | Photosensitizing index (PI) A549 [1] | GI50 [1, 9] [µM] | GI50 [2, 10] [µM] | Photosensitizing index (PI) T24 [2] | GI50 [2, 11] [µM] | GI50 [3, 12] [µM] | SI (vs MC3T3) HeLa Dark [3] | Photosensitizing index (PI) HeLa [3] | GI50 [3, 13] [µM] | GI50 [4, 14] [µM] | Photosensitizing index (PI) MCF7 [4] | GI50 [4, 15] [µM] | GI50 [5, 16] [µM] | SI (vs MC3T3) MGHU3 Dark ([5]; dark) | Photosensitizing index (PI) MGHU3 [5] | GI50 [5, 17] [µM] | GI50 [6, 18] [µM] | SI (vs MC3T3) Scaber Dark [6] | Photosensitizing index (PI) Scaber [6] | further results
1 | COC(=O)c1ccc2[n+](c1)[Ir-3]13([c]4ccccc4-2)([c]2ccccc2-c2ccc(C(=O)OC)c[n+]21)[c]1n(CCCNC(=O)CCCC[C@@H]2SC[C@@H]4NC(=O)N[C@@H]42)cc[n+]1-c1cccc[n+]13.F[P-](F)(F)(F)(F)F [I-e] | 21.6 µM | 5.0 | 107 | 5.6 | 17.2 | 96 | 59 | 0.3 | 3.7 | 221 | 12.2 | 11.9 | 145 | 17.8 | <1 | >5.6 | > 100 | 14.7 | <1 | >6.8 | SI (vs NIH-3T3) A549 Blue [1]: 6.3; SI (vs NIH-3T3) A549 Dark [1]: >2.3; SI (vs MC3T3) HeLa Blue [3]: 0.7; SI (vs NIH-3T3) HeLa Dark [3]: >1.1; SI (vs NIH-3T3) MCF7 Blue ([4]; blue light 458 nm): 11.1; SI (vs MC3T3) MCF7 Dark [4]: 0.4; SI (vs NIH-3T3) MCF7 Dark [4]: >1.7; SI (vs MC3T3) MGHU3 Blue ([5]; blue light 458 nm): 2.3; SI (vs NIH-3T3) MGHU3 Blue ([5]; blue light 458 nm): 7.8; SI (vs NIH-3T3) MGHU3 Dark ([5]; dark): >2.5; SI (vs NIH-3T3) Scaber Dark [6]: >2.5; GI50 [6, 19]: > 100 µM; PI values, mean over cancer cells [7]: 8.4 fold; PI values, median over cancer cells [7]: 6.2 fold
2 | F[P-](F)(F)(F)(F)F.O=C(CCCC[C@@H]1SC[C@@H]2NC(=O)N[C@@H]21)NCCCn1cc[n+]2[c]1[Ir-3]13([c]4ccccc4-c4ccc5ccccc5[n+]41)([c]1ccccc1-c1ccc4ccccc4[n+]13)[n+]1ccccc1-2 [I-g] | 1.5 µM | 6.1 | 9.1 | 1.1 | 16.9 | 18.6 | 10.8 | 1.2 | 4.1 | 44.3 | 2.2 | 6.3 | 13.8 | 4.3 | 2.2 | 5.9 | 25.4 | 2.5 | 3.9 | 5.6 | SI (vs NIH-3T3) A549 Blue [1]: 41.1; SI (vs MC3T3) A549 Dark [1]: 6.1; SI (vs NIH-3T3) A549 Dark [1]: 12.1; SI (vs NIH-3T3) T24 Blue ([2]; blue light 458 nm): 58.1; SI (vs MC3T3) MCF7 Blue ([4]; blue light 458 nm): 14.3; SI (vs NIH-3T3) MCF7 Blue ([4]; blue light 458 nm): 28.0; SI (vs MC3T3) MCF7 Dark [4]: 4.0; SI (vs NIH-3T3) MGHU3 Blue ([5]; blue light 458 nm): 14.3; SI (vs NIH-3T3) Scaber Blue [6]: 24.7; GI50 [6, 19]: 14.1 µM; selectivity for cancer cells over non-tumor cells, in words [7]: most selective effects under irradiated conditions; PI values, mean over cancer cells [7]: 7.5 fold; PI values, median over cancer cells [7]: 6.0 fold
3 | F[P-](F)(F)(F)(F)F.O=C(CCCC[C@@H]1SC[C@@H]2NC(=O)N[C@@H]21)NCCCn1cc[n+]2[c]1[Ir-3]13([c]4ccccc4-c4c5ccccc5cc[n+]41)([c]1ccccc1-c1c4ccccc4cc[n+]13)[n+]1ccccc1-2 [I-h] | 0.8 µM and 0.6 µM | 21.8 | 13.1 | 0.58 | 24.0 | 13.9 | 2.86 | 1.0 | 14.6 | 41.8 | 0.99 | 12.0 | 11.9 | 1.6 | 1.8 | 16.7 | 26.7 | 1 | 1.7 | 24.8 | SI (vs MC3T3) A549 Dark [1]: 3.2; SI (vs MC3T3) HeLa Blue [3]: 1.7; SI (vs NIH-3T3) HeLa Dark [3]: 2.4; SI (vs NIH-3T3) MCF7 Dark [4]: 8.6; SI (vs NIH-3T3) Scaber Blue [6]: 10.4; SI (vs NIH-3T3) Scaber Dark [6]: 4.1; GI50 [6, 19]: 24.8 µM; PI values, mean over cancer cells [7]: 19.0 fold; PI values, median over cancer cells [7]: 19.3 fold
